# Assays:
# alkaline phosphatase [1] = biological target: T1, alkaline phosphatase (Bos taurus, UniProt P19111); assay: Alkaline phosphatase detection limits, Wilj microtiter plate luminometer (Example XXVI); type: biochemical; settings: 23 MINUTE INCUBATION
# [2] = biological target: T2, alkaline phosphatase (calf intestine; Biozyme) (Bos taurus, UniProt P19111); assay: Total dephosphorylation, chemiluminescence decay (Example XIII); type: biochemical; settings: 30° C., carbonate/bicarbonate buffer
# T2 construct: purchased Biozyme; host or cells: calf intestine
# T2 sequence (P19111 20-506 limits assumed): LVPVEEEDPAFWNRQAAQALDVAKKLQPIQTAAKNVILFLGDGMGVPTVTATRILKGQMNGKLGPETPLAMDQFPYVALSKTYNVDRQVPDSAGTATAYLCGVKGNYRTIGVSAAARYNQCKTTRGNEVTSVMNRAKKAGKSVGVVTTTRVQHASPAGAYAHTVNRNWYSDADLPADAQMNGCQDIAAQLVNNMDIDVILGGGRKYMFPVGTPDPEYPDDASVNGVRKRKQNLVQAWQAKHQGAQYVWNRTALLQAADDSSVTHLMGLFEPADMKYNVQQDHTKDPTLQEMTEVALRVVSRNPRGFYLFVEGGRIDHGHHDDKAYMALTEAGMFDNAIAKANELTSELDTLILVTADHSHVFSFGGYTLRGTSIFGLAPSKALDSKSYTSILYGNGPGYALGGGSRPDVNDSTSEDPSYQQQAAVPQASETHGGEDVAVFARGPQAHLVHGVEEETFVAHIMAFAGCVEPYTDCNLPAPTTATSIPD
# Procedure: A comparison of the total luminescence emission from AMPPD and from the corresponding 1,2-dioxetanes whose adamant-2'-ylidene groups are monosubstituted with hydroxy (A and B isomers), chloro and bromo groups was made by carrying out total dephosphorylation experiments on each of these compounds.
# An aqueous solution of the 1,2-dioxetane (4.0 mm) in 0.05M sodium carbonate/sodium bicarbonate containing 1 mM magnesium chloride was prepared and then equilibrated at 30° C. Ten μl of a 7.64×10M aqueous solution of alkaline phosphatase (calf intestine; Biozyme) was then added, and the chemiluminescence from the resulting solution was recorded using a Turner Model 20E luminometer (Turner Instruments; Sunnyvale, Calif.).
# The rates of chemiluminescence decay for each of the five compounds in question, expressed in relative light units (RLU's) per minute, are given in the following table.
# alkaline phosphatase [3] = biological target: T1, alkaline phosphatase; assay: Alkaline phosphatase detection limits, LabSystems Luminoskan (Example XXV); type: biochemical
# Procedure: (§1) The detection means for alkaline phosphatase with different chemiluminescent 1,2-dioxetane substrates were determined as follows: Duplicates of serial dilutions (1 to 3) of alkaline phosphates were incubated at room temperature with 0.4 mM dioxetane in 0.1 M diethanolamine, 1 mM MgCl2, pH 10.0, containing 1 mg/ml of either of the polymeric enhancers Enhancer 1 or Enhancer 2, in […].
# (§2) Following either a 5 or a 20 minute incubation with a substrate, the chemiluminescence intensity was measured as a 5 second integrated Relative Light Units (RLU) and plotted as in FIG. 10. […] The alkaline phosphatase concentrations at twice background were used as the detection limits in Table 5.
# The luminometer used in this example was LabSystems Luminoskan microtiter plate reader.
# alkaline phosphatase [4] = biological target: T1, alkaline phosphatase; assay: Half-time to plateau at low alkaline phosphatase concentration (Example XLI); type: biochemical; settings: 0.4 mM dioxetane at pH 10.0, 31.5° C., 2.53 × 10^-13 M alkaline phosphatase
# alkaline phosphatase [5] = biological target: T1, alkaline phosphatase; assay: Detection limits for alkaline phosphatase, Berthold LB952T (Example XXII); type: biochemical; settings: twice background
# Procedure: as §1, §2
# [6] = biological target: T3, biotinylated pBR322-35mer detected with Avidix-AP (Bos taurus, UniProt P19111); assay: Half-time to maximum chemiluminescence, biotinylated DNA on membranes (Example XXVIII); settings: 12.5 pg DNA, […] dioxetane in 0.1 M DEA, pH 10.0
# T3 construct: purchased Tropix, Inc
# T3 sequence (P19111 20-506 limits assumed): as above
# Procedure: The performance of AMPPD and Cl-AMPPD on a nylon membrane was compared as follows: 12.5 picograms of biotinylated-pBR322-(35 mer) in 1 μL was spotted onto dry nylon membrane and crosslinked to the membrane with UV light. The membrane subsequently wetted with 1×SSC buffer, incubated with 0.2% casein, 0.1% Tween-20 in phosphate buffered saline (PBS) for 1 hour at room temperature, washed 4 times with 0.3% Tween-20 in PBS, washed twice in Substrate Buffer (0.1 M diethanolamine, 1 mM MgCl2, pH 10.0), and incubated for 5 minutes in 0.25 mM dioxetane in Substrate Buffer. In this fashion, two membranes: one incubated with AMPPD and the second with Cl-AMPPD, were generated. The membranes were then sealed in plastic, attached to the outside of a 12×75 mm glass test tube, and inserted into Turner Model 20-E luminometer equipped with a side-mounted photomultiplier detector and thermally equilibrated to 30° C. The chemiluminescence intensity was then monitored for 20-24 hours.
# The half-times to the maximum chemiluminescence intensity obtained with AMPPD and Cl-AMPPD on PVDF and nylon membranes were calculated from data collected as described in Example XXVII, for the nylon membrane. For PVDF membrane, the revised protocol included the second Substrate Buffer wash followed by the membrane incubation for 5 minutes at room temperature in the Tropix NitroBlock™ reagent and a subsequent wash with Substrate Buffer prior to the dioxetane substrates addition. The half-times to the maximum chemiluminescent signal were calculated from the a plot of the logarithm (maximum chnemiluminescent signal minus signal at each time point) as a function of time and is shown in Table 9.
# 12.5 pg of biotinylated pBR322-35mer was detected with Avidix-AP and 0.24 mM dioxetane in 0.1 M DEA, pH 10.0.
# alkaline phosphatase [7] = biological target: T1, alkaline phosphatase; assay: Chemiluminescent signal-to-noise levels with enhancers (Example XXIV); type: biochemical
# Procedure: The chemiluminescent signal to noise levels were obtained with 2.83×10^-13 M alkaline phosphatase and various R-substituted adamantyl 1,2-dioxetane phosphates in the presence of several enhancers. All measurements were performed in a Berthold LB952T luminometer at room temperature. First, the background chemiluminescence levels (signal in the absence of the enzyme) of each sample (in triplicate) were measured. Each sample consisted of 0.2 μmoles of dioxetane in 0.45 ml of 0.1 M diethanolamine, 1 mM MgCl2, pH 10.0, without or with 1 mg/ml of the indicated enhancer. Tubes were inserted into the luminometer and the luminescence intensity was measured. Next, the tubes were removed from the luminometer and alkaline phosphatase (50 μl containing 1.415×10^-16 moles) was added to each tube, and the luminescence intensity was measured at 5 and 20 minutes after substrate addition. The final concentration of dioxetane in each tube was 0.4 mM.
# All enhancers used at 1 mg/ml in 0.1 M DEA, pH 10. Alkaline phosphatase concentration=2.83×10^-13 M. Measurements performed in a Berthold LB952T Luminometer.
# [8] = SAPPHIRE II, 5 MINUTE INCUBATION
# [9] = SAPPHIRE II, 20 MINUTE INCUBATION
# [10] = PVDF membrane treated with NitroBlock
# [11] = enhancer NONE, 5 min, alkaline phosphatase 2.83×10^-13 M
# T1 sequence (P19111 20-506 limits assumed): as above
Compound,Alkaline phosphatase detection limit (at 2× background) (alkaline phosphatase [1]; SAPPHIRE II) [pM],Alkaline phosphatase detection limit (at 2× background) (alkaline phosphatase [1]; SAPPHIRE) [pM],Alkaline phosphatase detection limit (at 2× background) (alkaline phosphatase [3]; [8]) [pM],Alkaline phosphatase detection limit (at 2× background) (alkaline phosphatase [3]; [9]) [pM],"Alkaline phosphatase detection limit (at 2× background) (alkaline phosphatase [3]; SAPPHIRE, 5 MINUTE INCUBATION) [pM]","Alkaline phosphatase detection limit (at 2× background) (alkaline phosphatase [3]; SAPPHIRE, 20 MINUTE INCUBATION) [pM]","Detection limit for alkaline phosphatase (alkaline phosphatase [5]; ENHANCER 1, 5 MIN) [femtomoles/liter]","Detection limit for alkaline phosphatase (alkaline phosphatase [5]; ENHANCER 1, 20 MIN) [femtomoles/liter]","Detection limit for alkaline phosphatase (alkaline phosphatase [5]; ENHANCER 2, 5 MIN) [femtomoles/liter]","Detection limit for alkaline phosphatase (alkaline phosphatase [5]; ENHANCER 2, 20 MIN) [femtomoles/liter]",HALF-TIME TO MAXIMUM CHEMILUMINESCENCE ([6]; Nylon membrane) [min],"HALF-TIME TO MAXIMUM CHEMILUMINESCENCE [6, 10] [min]",Total Decay Time [2] [min],Decay Rate I ([2]; RLU's per minute) [RLU's per minute],Decay Rate II ([2]; RLU's per minute) [RLU's per minute],"chemiluminescent signal-to-noise level (alkaline phosphatase [7]; EMERALD 1 1 mg/ml, 5 min)","chemiluminescent signal-to-noise level (alkaline phosphatase [7]; EMERALD 1 1 mg/ml, 20 min)","chemiluminescent signal-to-noise level (alkaline phosphatase [7]; EMERALD 2 1 mg/ml, 5 min)","chemiluminescent signal-to-noise level (alkaline phosphatase [7]; EMERALD 2 1 mg/ml, 20 min)","chemiluminescent signal-to-noise level (alkaline phosphatase [7]; SAPPHIRE 1 1 mg/ml, 5 min)",other results
"COC1(c2cccc(OP(=O)(O)O)c2)OOC12C1CC3CC2CC(O)(C3)C1 (single isomer, unassigned) [A-OH-AMPPD, disodium 3-(4-methoxyspiro-[1,2-dioxetane-3,2'-(5'-hydroxy)tricyclo[3.3.1.1^3,7]decan]-4-yl)phenyl phosphate]",0.0014,0.0015,0.0014,0.00031,0.0031,0.0011,,,,,,,,,,,,,,,"Total Decay Time ([2]; listed as OH-Adamant-2'-ylidene (A isomer)): 9 min; Decay Rate I ([2]; RLU's per minute, listed as OH-Adamant-2'-ylidene (A isomer)): 1.3 RLU's per minute; HALF-TIME TO PLATEAU (min.) AL LOW ALK PHOS CONCENTRATION (alkaline phosphatase [4]; listed as HO-AMPPD-A): 0.93 min"
"COC1(c2cccc(OP(=O)(O)O)c2)OOC12C1CC3CC2CC(O)(C3)C1 (single isomer, unassigned) [B-OH-AMPPD, disodium 3-(4-methoxyspiro-[1,2-dioxetane-3,2'-(5'-hydroxy)tricyclo[3.3.1.1^3,7]decan]-4-yl)phenyl phosphate]",,,,,,,,,,,,,,,,,,,,,"Total Decay Time ([2]; listed as OH-Adamant-2'-ylidene (B isomer)): 10 min; Decay Rate I ([2]; RLU's per minute, listed as OH-Adamant-2'-ylidene (B isomer)): 1.5 RLU's per minute; HALF-TIME TO PLATEAU (min.) AL LOW ALK PHOS CONCENTRATION (alkaline phosphatase [4]; listed as HO-AMPPD-B): 1.03 min"
"COC1(c2cccc(OP(=O)(O)O)c2)OOC12C1CC3CC(C1)CC2C3 (stereo not shown) [AMPPD, 3-(4-methoxyspiro[1,2-dioxetane-3,2'-triyclo[3.3.1.1^3,7]decan]-4-yl)phenyl phosphate, reference compound]",0.0013,0.0019,0.0025,0.0011,0.0038,0.0014,4.0,1.4,3.5,1.1,99.83,49.51,60,0.1,0.3,109,282,113,291,159,"Decay Rate III ([2]; RLU's per minute): 0.8 RLU's per minute; chemiluminescent signal-to-noise level (alkaline phosphatase [7]; SAPPHIRE 1 1 mg/ml, 20 min): 364; chemiluminescent signal-to-noise level (alkaline phosphatase [7]; SAPPHIRE 2 1 mg/ml, 5 min): 192; chemiluminescent signal-to-noise level (alkaline phosphatase [7]; SAPPHIRE 2 1 mg/ml, 20 min): 434; chemiluminescent signal-to-noise level (alkaline phosphatase [7]; [11]): 21; chemiluminescent signal-to-noise level (alkaline phosphatase [7]; enhancer NONE, 20 min): 34; HALF-TIME TO PLATEAU (min.) AL LOW ALK PHOS CONCENTRATION (alkaline phosphatase [4]): 1.97 min"
"COC1(c2cccc(OP(=O)(O)O)c2)OOC12C1CC3CC2CC(Cl)(C3)C1 (stereo not shown) [Cl-AMPPD, disodium 3-(4-methoxyspiro-[1,2-dioxetane-3,2'-(5'-chloro)tricyclo[3.3.1.1^3,7]decan]-4-yl) phenyl phosphate]",0.00021,0.000705,0.0008,0.00043,0.0014,0.0005,1.0,0.6,0.8,0.4,47.48,14.20,15,1.2,5.5,583,964,839,1280,577,"chemiluminescent signal-to-noise level (alkaline phosphatase [7]; SAPPHIRE 1 1 mg/ml, 20 min): 827; chemiluminescent signal-to-noise level (alkaline phosphatase [7]; SAPPHIRE 2 1 mg/ml, 5 min): 1319; chemiluminescent signal-to-noise level (alkaline phosphatase [7]; SAPPHIRE 2 1 mg/ml, 20 min): 2221; chemiluminescent signal-to-noise level (alkaline phosphatase [7]; [11]): 82; chemiluminescent signal-to-noise level (alkaline phosphatase [7]; enhancer NONE, 20 min): 98"

# — patent US5326882A, “Chemiluminescent 3-(substituted Adamant-2'-Ylidene) 1,2-dioxetanes” (Tropix, Inc., priority 1992, dated 1994)
